# Laboratory results as given in patent US9822114B2, “Tricyclic oxazolidinone antibiotic compounds” (Idorsia Pharmaceuticals Ltd, priority 2008, dated 2017).
# System: M. catarrhalis A894
# Experiment: Minimal inhibitory concentration (MIC), microdilution method in cation-adjusted Mueller-Hinton Broth (CLSI M7-A7)
# Format: cell-based
# Settings: strain A894
# Method: Minimal inhibitory concentrations (MICs; mg/1) were determined in cation-adjusted Mueller-Hinton Broth by a microdilution method following the description given in “Methods for Dilution Antimicrobial Susceptibility Tests for Bacteria that Grow Aerobically”, Approved standard, 7th ed., Clinical and Laboratory Standards Institute (CLSI) Document M7-A7, Wayne, Pa., USA, 2006.
row,Substance,MIC for M. catarrhalis A894
1,"(1R,2S)-2-methyl-1-{3-[(S)-2-oxo-3-(3-oxo-3,4-dihydro-2H-benzo[1,4]thiazin-6-yl)-oxazolidin-5-yl]-propylamino}-1,2-dihydro-pyrrolo[3,2,1-ij]quinolin-4-one and (1S,2R)-2-methyl-1-{3-[(S)-2-oxo-3-(3-oxo-3,4-dihydro-2H-benzo[1,4]thiazin-6-yl)-oxazolidin-5-yl]-propylamino}-1,2-dihydro-pyrrolo[3,2,1-ij]quinolin-4-one [Example 167]",≦0.031 mg/l
2,"(1R,2S)-2-methyl-1-{3-[(S)-2-oxo-3-(3-oxo-3,4-dihydro-2H-pyrido[3,2-b][1,4]thiazin-6-yl)-oxazolidin-5-yl]-propylamino}-1,2-dihydro-pyrrolo[3,2,1-ij]quinolin-4-one and (1S,2R)-2-methyl-1-{3-[(S)-2-oxo-3-(3-oxo-3,4-dihydro-2H-pyrido[3,2-b][1,4]thiazin-6-yl)-oxazolidin-5-yl]-propylamino}-1,2-dihydro-pyrrolo[3,2,1-ij]quinolin-4-one [Example 169]",≦0.031 mg/l
3,"(RS)-1-({[(R)-3-(4-ethoxy-phenyl)-2-oxo-oxazolidin-5-ylmethyl]-amino}-methyl)-9-fluoro-1,2-dihydro-pyrrolo[3,2,1-ij]quinolin-4-one [Example 36]",8 µg/mL
4,"N—((RS)-9-fluoro-4-oxo-1,2-dihydro-4H-pyrrolo[3,2,1-ij]quinolin-1-yl)-N-{3-[(R)-2-oxo-3-(3-oxo-3,4-dihydro-2H-benzo[1,4]thiazin-6-yl)-oxazolidin-5-yl]-propyl}-acetamide and (RS)-1-{3-[(R)-3-(4-acetyl-3-oxo-3,4-dihydro-2H-benzo[1,4]thiazin-6-yl)-2-oxo-oxazolidin-5-yl]-propylamino}-9-fluoro-1,2-dihydro-pyrrolo[3,2,1-ij]quinolin-4-one [Example 172]",0.25 µg/mL
